Experimental data from US4108991A, “N-aminosulfenyl derivatives of aldicarb” (priority 1976, dated 1978).
Where two headings read alike, the source gives them in different places.

How the values were obtained:
Pea aphid = experiment: Systemic activity, soil-watering, pea aphid; assay type: in vivo, Acyrthosiphon pisum [Harris]
Procedure: (§1) Initial Contact Activity: One half gram of test compound was dissolved in 40 ml of acetone and this solution was dispersed in 360 ml of water containing one drop of isooctylphenyl polyethoxyethanol. Aliquots of this solution, which corresponds to 1250 ppm of active ingredient, were diluted with an appropriate amount of water to provide solutions containing various concentrations of active ingredient. Test organisms and techniques were as follows: The activity against the Mexican bean beetle (Epilachna varivestis Muls.) and the southern armyworm (Spodoptera eridania [Cram.]) was evaluated by dipping the leaves of pinto bean plants into the test solution and infesting the leaves with the appropriate immature-form insects when the foiliage had dried; the activity against the pea aphid (Acyrthosiphon pisum [Harris]) was evaluated on broad bean plants whose leaves were dipped before infestation with adult aphids; the activity against two-sotted spider mites (Tetranychus urticae Koch) was evaluated on pinto bean plants whose leaves were dipped after infestation with adult mites; the activity against the milkweed bug (Oncopeltus fasciatus [Dallas]), and the plum curculio (Conotrachelus nenuphar [Herbst]) was evaluated by spraying the test solutions into glass dishes or jars containing the adult insects; the activity against the confused flour beetle (Tribolium confusum duVal) was evaluated by introducing the insects into glass dishes which had been previously sprayed with test solution and allowed to dry. All organisms in the test were maintained in a holding room at 80° F and 50% relative humidity for an exposure period of 48 hours. At the end of this time, the dead and living insects or mites were counted, and the percent kill was calculated.
(§2) Systemic Activity: Systemic activity was measured using a soil-watering technique. Test organisms were Mexican bean beetle, southern armyworm, pea aphid, and mites on plants as described above in this Example. With appropriate precautions to avoid contact of the solution with the test plant surfaces, 25 ml of a test solution, prepared as above to contain the desired amount of active ingredient, were poured evenly over the surface of the soil in which the plant was growing. The treated plants were maintained under normal growing conditions for three days to permit translocation of the toxicant, after which the leaves were infested. Two days after infestation, counts of living and dead insects were made.

Southern armyworm = experiment: Systemic activity, soil-watering, southern armyworm; assay type: in vivo, Spodoptera eridania [Cram.]; conditions: Spodoptera eridania, 48 h, read-out: Percent Kill
Procedure: as §1, §2

Two-spotted spider mite [1] = experiment: Systemic activity, soil-watering, two-spotted spider mite; assay type: in vivo, Tetranychus urticae Koch; conditions: Tetranychus urticae, 48 h
Procedure: as §1, §2

Mexican bean beetle = experiment: Initial contact activity, leaf dip, Mexican bean beetle; assay type: in vivo, Epilachna varivestis Muls.
Procedure: as §1

Plum curculio = experiment: Residual (7-day) contact activity, plum curculio; assay type: in vivo, Conotrachelus nenuphar [Herbst]
Procedure: as §1
(§3) Residual Contact Activity: The residual contact activity of the compounds was determined on the same organisms using the techniques described above, except that in each case the treated surface was allowed to dry and was exposed to normal light and air for seven days before introduction of the mites or insects.

Two-spotted spider mite [2] = experiment: Residual (7-day) contact activity, two-spotted spider mite; assay type: in vivo, Tetranychus urticae Koch
Procedure: as §1, §3

Two-spotted spider mite [3] = experiment: Initial contact activity, leaf dip, two-spotted spider mite; assay type: in vivo, Tetranychus urticae Koch; conditions: for Percent Kill: 2880 min
Procedure: as §1

[4] = Conotrachelus nenuphar, 168 h, read-out: Percent Kill
[5] = Acyrthosiphon pisum, 48 h, systemic, PA, 10 PPM, read-out: Percent Kill
[6] = Acyrthosiphon pisum, 48 h, systemic, PA, 39 PPM, read-out: Percent Kill
[7] = systemic, SM, 2.5 PPM, read-out: Percent Kill
[8] = systemic, SM, read-out: Percent Kill
[9] = systemic, SM, 10 PPM, read-out: Percent Kill
[10] = Epilachna varivestis, foliar, 48 h, initial, BB, 156 PPM, 48 hours, read-out: Percent Kill
[11] = Epilachna varivestis, foliar, 48 h, initial, BB, 312 PPM, 48 hours, read-out: Percent Kill
[12] = Epilachna varivestis, foliar, 48 h, initial, BB, 625 PPM, 48 hours, read-out: Percent Kill
[13] = Epilachna varivestis, foliar, 48 h, initial, BB, 1250 PPM, 48 hours, read-out: Percent Kill
[14] = Conotrachelus nenuphar, 168 h, residual 7-day, PC, 156 PPM, read-out: Percent Kill
[15] = Conotrachelus nenuphar, 168 h, residual 7-day, PC, 312 PPM, read-out: Percent Kill
[16] = Conotrachelus nenuphar, 168 h, residual 7-day, PC, 1250 PPM, read-out: Percent Kill
[17] = Tetranychus urticae, 168 h, residual 7-day, SM, 156 PPM, read-out: Percent Kill
[18] = Tetranychus urticae, 168 h, residual 7-day, SM, 312 PPM, read-out: Percent Kill
[19] = Tetranychus urticae, 168 h, residual 7-day, SM, 1250 PPM, read-out: Percent Kill
[20] = Tetranychus urticae, foliar, 48 h, initial, SM, 10 PPM, 48 hours, read-out: Percent Kill
[21] = Tetranychus urticae, foliar, 48 h, initial, SM, 39 PPM, 48 hours, read-out: Percent Kill
[22] = Tetranychus urticae, foliar, 48 h, initial, SM, 156 PPM, 48 hours, read-out: Percent Kill
[23] = Tetranychus urticae, foliar, 48 h, initial, SM, 1250 PPM, 48 hours, read-out: Percent Kill

## CNC(=O)ON=CC(C)(C)SC [Aldicarb, 2-methyl-2-(methylthio)propanal O-(methylcarbamoyl)oxime]
Pea aphid; Acyrthosiphon pisum, 48 h, read-out: Percent Kill, systemic, PA, 5 PPM
  mortality at 5 ppm: 100%
Pea aphid; Acyrthosiphon pisum, 48 h, read-out: Percent Kill, systemic, PA, 10 PPM
  mortality at 10 ppm: 90%
Pea aphid; Acyrthosiphon pisum, 48 h, read-out: Percent Kill, systemic, PA, 39 PPM
  mortality at 39 ppm: 100%
Pea aphid; Acyrthosiphon pisum, 48 h, read-out: Percent Kill, systemic, PA, 321 PPM
  mortality at 321 ppm: 100%
Pea aphid; systemic, PA, 10 PPM, 2880 min
  Percent Kill: 100%
Southern armyworm
  mortality at 39 ppm: 50%
  mortality at 312 ppm: 100%
  mortality at 625 ppm: 100%
Two-spotted spider mite [1]; read-out: Percent Kill, systemic, SM, 2.5 PPM
  mortality at 2.5 ppm: 4.6%
Two-spotted spider mite [1]; read-out: Percent Kill, systemic, SM, 10 PPM
  mortality at 10 ppm: 100%
Two-spotted spider mite [1]; read-out: Percent Kill, systemic, SM, 39 PPM
  mortality at 39 ppm: 100%
Mexican bean beetle; Epilachna varivestis, foliar, 48 h, read-out: Percent Kill, initial, BB, 20 PPM, 48 hours
  mortality at 20 ppm: 0%
Mexican bean beetle; Epilachna varivestis, foliar, 48 h, read-out: Percent Kill, initial, BB, 39 PPM, 48 hours
  mortality at 39 ppm: 40%
Mexican bean beetle; Epilachna varivestis, foliar, 48 h, read-out: Percent Kill, initial, BB, 156 PPM, 48 hours
  mortality at 156 ppm: 89%
Mexican bean beetle; Epilachna varivestis, foliar, 48 h, read-out: Percent Kill, initial, BB, 312 PPM, 48 hours
  mortality at 312 ppm: 95%
Mexican bean beetle; Epilachna varivestis, foliar, 48 h, read-out: Percent Kill, initial, BB, 625 PPM, 48 hours
  mortality at 625 ppm: 100%
Mexican bean beetle; Epilachna varivestis, foliar, 48 h, read-out: Percent Kill, initial, BB, 1250 PPM, 48 hours
  mortality at 1250 ppm: 100%
Mexican bean beetle; initial, BB, 156 PPM, 48 hours, 2880 min
  Percent Kill: 91%
Plum curculio; [4]
  mortality at 156 ppm: 4.8%
  mortality at 312 ppm: 32%
  mortality at 625 ppm: 0%
  mortality at 1250 ppm: 0%
Plum curculio; residual 7-day, PC, 1250 PPM
  Percent Kill: 0%
Two-spotted spider mite [2]; Tetranychus urticae, 168 h, read-out: Percent Kill, residual 7-day, SM, 39 PPM
  mortality at 39 ppm: 17%
Two-spotted spider mite [2]; Tetranychus urticae, 168 h, read-out: Percent Kill, residual 7-day, SM, 156 PPM
  mortality at 156 ppm: 91.5%
Two-spotted spider mite [2]; Tetranychus urticae, 168 h, read-out: Percent Kill, residual 7-day, SM, 312 PPM
  mortality at 312 ppm: 97%
Two-spotted spider mite [2]; Tetranychus urticae, 168 h, read-out: Percent Kill, residual 7-day, SM, 1250 PPM
  mortality at 1250 ppm: 98.6%
Two-spotted spider mite [2]; residual 7-day, SM, 156 PPM
  Percent Kill: 90%
Two-spotted spider mite [3]; Tetranychus urticae, foliar, 48 h, read-out: Percent Kill, initial, SM, 5 PPM, 48 hours
  mortality at 5 ppm: 21%
Two-spotted spider mite [3]; Tetranychus urticae, foliar, 48 h, read-out: Percent Kill, initial, SM, 10 PPM, 48 hours
  mortality at 10 ppm: 88%
Two-spotted spider mite [3]; Tetranychus urticae, foliar, 48 h, read-out: Percent Kill, initial, SM, 20 PPM, 48 hours
  mortality at 20 ppm: 100%
Two-spotted spider mite [3]; Tetranychus urticae, foliar, 48 h, read-out: Percent Kill, initial, SM, 39 PPM, 48 hours
  mortality at 39 ppm: 100%
Two-spotted spider mite [3]; Tetranychus urticae, foliar, 48 h, read-out: Percent Kill, initial, SM, 156 PPM, 48 hours
  mortality at 156 ppm: 100%
Two-spotted spider mite [3]; Tetranychus urticae, foliar, 48 h, read-out: Percent Kill, initial, SM, 1250 PPM, 48 hours
  mortality at 1250 ppm: 100%
Two-spotted spider mite [3]; initial, SM, 10 PPM, 48 hours
  Percent Kill: 100%
Two-spotted spider mite [3]; initial, SM, 1250 PPM, 48 hours
  Percent Kill: 95%

## CSC(C)(C)C=NOC(=O)N(C)SN(C)Cc1ccccc1 [Example I, 2-methyl-2-(methylthio)propanol O-[(N-benzyl-N-methylaminosulfenyl)(methyl)carbamoyl]oxime]
Pea aphid; [5]
  mortality at 10 ppm: 0%
Pea aphid; [6]
  mortality at 39 ppm: 100%
Southern armyworm; systemic, AW, 312 PPM
  mortality at 312 ppm: 50%
Southern armyworm; systemic, AW, 625 PPM
  mortality at 625 ppm: 84%
Two-spotted spider mite [1]; [7]
  mortality at 2.5 ppm: 0.9%
Two-spotted spider mite [1]; [8]
  mortality at 5 ppm: 2.3%
Two-spotted spider mite [1]; [9]
  mortality at 10 ppm: 4.3%
Mexican bean beetle; [10]
  mortality at 156 ppm: 82%
Mexican bean beetle; [11]
  mortality at 312 ppm: 94%
Mexican bean beetle; [12]
  mortality at 625 ppm: 100%
Mexican bean beetle; [13]
  mortality at 1250 ppm: 100%
Plum curculio; [14]
  mortality at 156 ppm: 23%
Plum curculio; [15]
  mortality at 312 ppm: 43%
Plum curculio; [16]
  mortality at 1250 ppm: 20%
Two-spotted spider mite [2]; [17]
  mortality at 156 ppm: 3.2%
Two-spotted spider mite [2]; [18]
  mortality at 312 ppm: 63%
Two-spotted spider mite [2]; [19]
  mortality at 1250 ppm: 99.5%
Two-spotted spider mite [3]; [20]
  mortality at 10 ppm: 96%
Two-spotted spider mite [3]; [21]
  mortality at 39 ppm: 98%
Two-spotted spider mite [3]; [22]
  mortality at 156 ppm: 100%
Two-spotted spider mite [3]; [23]
  mortality at 1250 ppm: 100%

## CSC(C)(C)C=NOC(=O)N(C)SN1CCOCC1 [Example II, 2-methyl-2-(methylthio)propanol O-[(N-methyl-N-morpholinosulfenyl)carbamoyl]oxime]
Pea aphid; [5]
  mortality at 10 ppm: 40%
Pea aphid; [6]
  mortality at 39 ppm: 100%
Southern armyworm; systemic, AW, 312 PPM
  mortality at 312 ppm: 100%
Southern armyworm; systemic, AW, 625 PPM
  mortality at 625 ppm: 100%
Two-spotted spider mite [1]; [8]
  mortality at 5 ppm: 1.4%
Two-spotted spider mite [1]; [9]
  mortality at 10 ppm: 38%
Two-spotted spider mite [1]; systemic, SM, 39 PPM, read-out: Percent Kill
  mortality at 39 ppm: 69%
Mexican bean beetle; [10]
  mortality at 156 ppm: 100%
Mexican bean beetle; [11]
  mortality at 312 ppm: 100%
Mexican bean beetle; [12]
  mortality at 625 ppm: 100%
Mexican bean beetle; [13]
  mortality at 1250 ppm: 100%
Plum curculio; [14]
  mortality at 156 ppm: 10%
Plum curculio; [15]
  mortality at 312 ppm: 5%
Plum curculio; [16]
  mortality at 1250 ppm: 37%
Two-spotted spider mite [2]; [17]
  mortality at 156 ppm: 76%
Two-spotted spider mite [2]; [18]
  mortality at 312 ppm: 93%
Two-spotted spider mite [2]; [19]
  mortality at 1250 ppm: 97%
Two-spotted spider mite [3]; [20]
  mortality at 10 ppm: 100%
Two-spotted spider mite [3]; [21]
  mortality at 39 ppm: 100%
Two-spotted spider mite [3]; [22]
  mortality at 156 ppm: 100%
Two-spotted spider mite [3]; [23]
  mortality at 1250 ppm: 100%

## CCCCN(CCCC)SN(C)C(=O)ON=CC(C)(C)SC [Example III, 2-methyl-2-(methylthio)propanal O-[(dibutylaminosulfenyl)(methyl)carbamoyl]oxime]
Pea aphid; [5]
  mortality at 10 ppm: 0%
Pea aphid; [6]
  mortality at 39 ppm: 64%
Southern armyworm; systemic, AW, 312 PPM
  mortality at 312 ppm: 0%
Southern armyworm; systemic, AW, 625 PPM
  mortality at 625 ppm: 68%
Two-spotted spider mite [1]; [7]
  mortality at 2.5 ppm: 0.9%
Two-spotted spider mite [1]; [8]
  mortality at 5 ppm: 0%
Two-spotted spider mite [1]; [9]
  mortality at 10 ppm: 0.7%
Mexican bean beetle; [10]
  mortality at 156 ppm: 40%
Mexican bean beetle; [11]
  mortality at 312 ppm: 63%
Mexican bean beetle; [12]
  mortality at 625 ppm: 95%
Mexican bean beetle; [13]
  mortality at 1250 ppm: 100%
Plum curculio; [14]
  mortality at 156 ppm: 5%
Plum curculio; [15]
  mortality at 312 ppm: 9.5%
Plum curculio; [16]
  mortality at 1250 ppm: 5%
Two-spotted spider mite [2]; [17]
  mortality at 156 ppm: 18%
Two-spotted spider mite [2]; [18]
  mortality at 312 ppm: 45%
Two-spotted spider mite [2]; [19]
  mortality at 1250 ppm: 100%
Two-spotted spider mite [3]; [20]
  mortality at 10 ppm: 98%
Two-spotted spider mite [3]; [21]
  mortality at 39 ppm: 89%
Two-spotted spider mite [3]; [22]
  mortality at 156 ppm: 100%
Two-spotted spider mite [3]; [23]
  mortality at 1250 ppm: 100%
